# Assay results: US20220211750A1, “COMPOSITIONS AND METHODS USING A COMBINATION OF CALCIUM AND AT LEAST ONE OF OLEUROPEIN OR METABOLITE THEREOF” (SOCIETE DES PRODUITS NESTLE S.A., priority 2019, published 2022)
# Tested on: C2C12-derived myotubes
# Experiment: Mitochondrial calcium rise (mitochondrial aequorin) in caffeine-stimulated C2C12-derived myotubes
# Format: cell-based, mouse
# Details: evoked by 5 mM caffeine, vs 0.5 mM calcium in the medium
# Text: To test the effect of Oleuropein, its metabolites and calcium supplementation/deficiency in living cells, the inventors measured mitochondrial calcium elevation in HeLa cells and in myotubes differentiated from both mouse C2C12 cells and human primary adult muscle cells. HeLa cells and C2C12 cells were purchased from ATCC. Human Skeletal Muscle Myoblasts (HSMM) were purchased from Lonza. HSMM were isolated from the upper arm or leg muscle tissue of normal donors and used after the second passage. HeLa cells were seeded in 96-well plates at a density of 50000 cells per well in minimal essential medium (DMEM, Gibco), high glucose, +10% fetal calf serum. C2C12 cells were seeded in 96-well plates at a density of 8000 cells per well in DMEM high glucose (Gibco)+10% fetal calf serum. Myotubes were differentiated from C2C12 cells by growing the cells in DMEM containing 2% horse serum, for 4 days. HSMM were seeded in 96-well plates at a density of 8000 cells per well in DMEM/F-12 (Gibco). […]
# For treatment, compounds were directly added to the cell culture or myotubes cultures 2 hours before measurements. Luminescence was measured at the Cytation 3 cell imaging reader (Biotek) or at the FLIPR Tetra Aequorin (Molecular Devices). […] Custom module analysis based on Excel (Microsoft) and GhaphPad Prism 7.02 (GraphPad) software was used for quantification.
compound,measurement,setting,value
[Ca+2] [calcium],"integrated mitochondrial calcium rise, effect of extracellular calcium abundance","P<0.05, listed as Ca^2+",activates mitochondrial Ca^2+ elevation in a dose/response manner
same,"integrated mitochondrial calcium rise, effect of extracellular calcium abundance","P<0.05, listed as Ca′",enhances mitochondrial Ca′ elevation in a dose/response manner
